# Earlier results as cited in US20230301938A1 (priority 2022, published 2023).
# Where two headings read alike, the source gives them in different places.
# Assays:
# myocardial ischemia = conditions: 10 mg/kg intravenously then 10 mg/kg/h
# [1] = test system: lipopolysaccharide-activated macrophages
# [2] = test system: LPS-challenged macrophages; conditions: pre-incubated 6 h, 0 to 50 µM, then LPS 24 h
# [3] = test system: Nrf2 (+/+) primary peritoneal macrophages
# [4] = test system: Nrf2 (-/-) primary peritoneal macrophages
# sepsis = conditions: for concentration of IL-1α: controls 1187.0 ± 278.64
# [5] = test system: lipopolysaccharide-induced inflammatory reactions
# [6] = test system: endothelium of atherosclerotic plaque; conditions: apoE(-/-) mice, injection
# [7] = test system: human umbilical vein VECs (HUVECs)
# [8] = 50 and 100 mg/kg/day, vs MD group
molecule,measurement,setting,value
O=C(O[C@@H]1Cc2c(O)cc(O)cc2O[C@@H]1c1cc(O)c(O)c(O)c1)c1cc(O)c(O)c(O)c1 [EGCG],TNF-α-induced nuclear factor-κB (NF-κB) activity,macrophage foam cells,inhibition
same,TNF-α-induced downregulation of ABCA1 and decrease in cholesterol efflux to apoA1,macrophage foam cells; pretreatment,attenuated
same,myeloperoxidase activity,myocardial ischemia,reduced
same,myocardial damage,myocardial ischemia,reduced
same,plasma IL-6 levels,myocardial ischemia,decreased
same,plasma creatine phosphokinase levels,myocardial ischemia,decreased
same,disease activity index (DAI),ulcerative colitis (UC); [8],decreased
same,spleen index (SI),ulcerative colitis (UC); [8],decreased
same,HIF-1α protein expression in the colon,"ulcerative colitis (UC); mouse, in vivo",decreasing
same,STAT3 protein expression in the colon,"ulcerative colitis (UC); mouse, in vivo",decreasing
same,plasma levels of IL-10,"ulcerative colitis (UC); mouse, in vivo",increasing
same,plasma levels of TGF-β1,"ulcerative colitis (UC); mouse, in vivo",increasing
same,release of IL-6,ulcerative colitis (UC); plasma,reduce
same,release of IL-17,ulcerative colitis (UC); plasma,reduce
same,NO production,[1]; cotreated with LPS,Inhibition
same,activation of nuclear factor-kappaB,[1]; electrophoretic mobility shift assay,blocked
"C[S+]([O-])CCCCN=C=S (stereo not drawn) [sulforaphane, 1-isothiocyanato-4-(methylsulfinyl)-butane]",inducible nitric oxide synthase (iNOS) activity,LPS-induced ARDS; 50 mg/kg,significantly inhibited
same,nuclear factor-κB protein expression,LPS-induced ARDS; 50 mg/kg,significantly decreased
same,prostaglandin E2 (PGE2) production,LPS-induced ARDS; 50 mg/kg,significantly inhibited
same,serum levels of interleukin-6 (IL-6),"LPS-induced ARDS; 50 mg/kg, ELISA",significantly decreased
same,serum levels of tumor necrosis factor-α (TNF-α),"LPS-induced ARDS; 50 mg/kg, ELISA",significantly decreased
same,lactate dehydrogenase (LDH) activity,"LPS-induced ARDS; 50 mg/kg, LPS 5 mg/kg",significantly decreased
same,wet-to-dry ratio of the lungs,"LPS-induced ARDS; 50 mg/kg, LPS 5 mg/kg",significantly decreased
same,Nrf2/antioxidant response element (ARE) pathway,LPS-induced ARDS; pre-treatment,activated
same,cyclooxygenase-2 (COX-2) protein expression,LPS-induced ARDS; western blot,significantly inhibited
same,matrix metalloproteinase-9 (MMP-9) protein expression,LPS-induced ARDS; western blot,significantly inhibited
same,expression of NO and cytokines,[2],able to prevent
same,HO-1 expression,[3]; LPS-stimulated,significantly augmented
same,"LPS-stimulated mRNA expression, protein expression and production of TNF-alpha, IL-1beta, COX-2 and iNOS",[3]; pretreatment,potently inhibited
same,anti-inflammatory effect,[4],attenuated
CC1=CC(=O)C(C(C)C)=CC1=O [thymoquinone],concentration of IL-1α,sepsis; 0.75 mg/kg dose,310.8 ± 70.93 pg/mL
same,IL-10 levels,"sepsis; 0.75 mg/kg, controls 5505.2 ± 333.96",2885.0 ± 553.98 pg/mL
same,concentration of IL-1α,sepsis; 1 mg/kg group,428.3 ± 71.32 pg/mL
same,levels of IL-2,sepsis; P=0.0851,relatively lower levels
same,levels of TNF-α,sepsis; P=0.1817,relatively lower levels
same,reduction of mortality,"sepsis; mice, sepsis",80-90%
same,renal and hepatic biomarker profiles,"sepsis; mice, sepsis",improved
same,lipopolysaccharide-induced inflammatory reactions,[5],suppressed effectively
same,concentration of nitric oxide,[5]; marker of inflammation,reduced significantly
"trans-3,5-dimethoxy-4-hydroxystilbene [pterostilbene]",number of TUNEL-positive cells in the endothelium of atherosclerotic plaque,[6],strongly decreased
same,"oxLDL-induced cell shrinkage, chromatin condensation, nuclear fragmentation, and cell apoptosis","[7]; HUVECs, oxLDL 200 µg/ml",protected against such injuries
same,expression of lectin-like oxLDL receptor-1 (LOX-1),[7]; in vitro and in vivo,inhibited
